Here are results for one compound from ChEMBL document CHEMBL3879889, “Compositions and methods for treating cancer” (2009).

As usually defined, the IC50 is the midpoint of a concentration-inhibition curve. A high value points to lower potency.

Activity calls are given as the source filed them. The rule behind the calls is not given here. A value given as a limit tells only on which side of the number the result lay.

Data set [1] is described as follows: Inhibition of HPV E6 protein interaction with MAGI-1 PDZ domain1 (unknown origin).
The nature of data set [2]: Inhibition of HPV E6 protein interaction with PSD95 PDZ domain1 (unknown origin).
A short description of data set [3]: Inhibition of HPV E6 protein interaction with PSD95 PDZ domain2 (unknown origin).
The nature of data set [4]: Inhibition of HPV E6 protein interaction with PSD95 PDZ domain3 (unknown origin).
A short description of data set [5]: Inhibition of HPV E6 protein interaction with shank1 (unknown origin).
A short description of data set [6]: Inhibition of HPV E6 protein interaction with Tip1 (unknown origin).
Data set [7] concerns 3Y1. Nature of the data set: Antimigratory activity in rat 3Y1 cells transfected with pBLAST E6-16 at 40 uM after 24 hrs. Format: functional, cell-based.
Data set [8] has as its system 3Y1. Nature of the data set: Antiproliferative activity in rat 3Y1 cells transfected with pBLAST E6-16 at 40 uM after 24 to 96 hrs. Type of data set: functional, cell-based.
The nature of data set [9]: Antiproliferative activity in rat 3Y1 cells transfected with pBLAST at 40 uM after 24 to 96 hrs. Type of data set: cell-based. The note with it: 3y1, 40 µM.
Data set [10] in a line: Cytotoxicity against HPV E6 transformed human SiHa cells assessed as cell viability at 60 uM treated 24 hrs post plating by WST-1 assay relative to control. Format: functional. The note with it: read-out: Activity. In general terms: Formazan colour is commonly taken as a measure of viable cells.
The nature of data set [11]: Cytotoxicity against HPV E6 transformed human HeLa cells assessed as cell viability at 60 uM treated 24 hrs post plating by WST-1 assay relative to control. Format: functional. The note with it: read-out: Activity.
The nature of data set [12]: Cytotoxicity against HPV negative human C33A assessed as cell viability at 60 uM treated 24 hrs post plating by WST-1 assay relative to control. The arrangement: species or system C-33-A. The note with it: C33A cells (HPV negative), read-out: Activity.
The nature of data set [13]: Downregulation of E6 protein expression in HPV18 E6 transformed human HeLa cells at 60 to 120 uM after 24 hrs by Western blot method. Format: functional, cell-based. On the technique in general: Immunoblotting shows a protein as a band on a membrane.
A short description of data set [14]: Upregulation of p53 expression in HPV18 E6 transformed human HeLa cells at 80 to 120 uM after 24 hrs by immunocytochemical analysis relative to control. Format: functional, cell-based.
The test system of a further data set is HeLa. In words: Induction of morphological changes in HPV18 E6 transformed human HeLa cells assessed as cell shrinkage at 80 to 120 uM after 24 hrs. Type of data set: functional, cell-based.

As to `CCc1cccc2c(C(c3ccccc3OCC(=O)O)c3c[nH]c4c(CC)cccc34)c[nH]c12`, the half-maximal inhibitory concentration (IC50) was 86.9 µM in data set [1]; more than 250 µM in [2]; more than 250 µM in [3]; more than 250 µM in data set [4]; more than 250 µM in data set [5]; more than 250 µM in [6]. Also, the result (in the data set on 3Y1 [7]; in the data set on 3Y1 [8]; in data set [13]; in data set [14]; in the data set on HeLa) was Active. Also, in data set [9], the Activity result was “Non-Toxic”. The viability at 60 µM is 74.3% in data set [10] and 70.1% in [11]. Also, the viability at 24 h, 60 µM in [12] is 104%.
